The supplement of paper PMC10307832

Legend:
Test in all cases: relative viability (nuclei count vs DMSO), 5 days (fraction); higher = more cells survive
[1] = compound: COc1cc2ncn(-c3cc(OCc4ccccc4C(F)(F)F)c(C(N)=O)s3)c2cc1OC + CC(=O)Nc1cccc(-n2c(=O)n(C3CC3)c(=O)c3c(Nc4ccc(I)cc4F)n(C)c(=O)c(C)c32)c1 [Trametinib] (partner 0.02 µM)
Summary of the method: (§1)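 Lung cancer cell lines were seeded in 1536-well plates and dosed by pin tool the next day, with either a single drug or a fixed anchor-drug dose combined with five library-drug doses (not always all listed) spaced in √10 steps. Five days later, one step fixed the cells and stained their nuclei (final 0.05% Triton X-100, 1% formaldehyde, 1 ug/ml Hoechst), and nuclei were counted on 4× images. Relative viability is the nuclei count in treated wells divided by the count in vehicle wells, and each value is the median of duplicate plates.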

[2] = compound: COc1cc2ncn(-c3cc(OCc4ccccc4C(F)(F)F)c(C(N)=O)s3)c2cc1OC + CC(C)C[C@H](NC(=O)[C@H](Cc1ccccc1)NC(=O)c1cnccn1)B(O)O [Bortezomib] (partner 0.002 µM)
Summary of the method: as §1

[3] = compound: COc1cc2ncn(-c3cc(OCc4ccccc4C(F)(F)F)c(C(N)=O)s3)c2cc1OC + CS(=O)(=O)N1CCN(Cc2cc3nc(-c4cccc5[nH]ncc45)nc(N4CCOCC4)c3s2)CC1 [Pictilisib] (partner 1 µM)
Summary of the method: as §1

[4] = compound: COc1cc2ncn(-c3cc(OCc4ccccc4C(F)(F)F)c(C(N)=O)s3)c2cc1OC + O=C(c1cc(Cc2n[nH]c(=O)c3ccccc23)ccc1F)N1CCN(C(=O)C2CC2)CC1 [Olaparib] (partner 8 µM)
Summary of the method: as §1

Cell Line | relative viability ([1]; first compound 0.05 µM) | relative viability ([1]; first compound 0.1581 µM) | relative viability ([1]; first compound 0.5 µM) | relative viability ([1]; first compound 1.581 µM) | relative viability ([1]; first compound 5 µM) | relative viability ([2]; first compound 0.05 µM) | relative viability ([2]; first compound 0.1581 µM) | relative viability ([2]; first compound 0.5 µM) | relative viability ([2]; first compound 1.581 µM) | relative viability ([2]; first compound 5 µM) | relative viability ([3]; first compound 0.05 µM) | relative viability ([3]; first compound 0.1581 µM) | relative viability ([3]; first compound 0.5 µM) | relative viability ([3]; first compound 1.581 µM) | relative viability ([3]; first compound 5 µM) | relative viability ([4]; first compound 0.05 µM) | relative viability ([4]; first compound 0.1581 µM) | relative viability ([4]; first compound 0.5 µM) | relative viability ([4]; first compound 1.581 µM) | relative viability ([4]; first compound 5 µM)
LCLC-97TM1 | 0.178 | 0.149 | 0.148 | 0.0713 | 0.0862 | 0.77 | 0.71 | 0.354 | 0.0568 | 0.0894 | 0.203 | 0.2 | 0.123 | 0.134 | 0.125 | 0.201 | 0.222 | 0.189 | 0.0731 | 0.0698
LCLC-103H | 0.675 | 0.643 | 0.565 | 0.452 | 0.268 | 1 | 1.03 | 0.744 | 0.522 | 0.208 | 0.594 | 0.695 | 0.54 | 0.271 | 0.135 | 0.687 | 0.768 | 0.651 | 0.281 | 0.212
LOU-NH91 | 0.783 | 0.776 | 0.719 | 0.52 | 0.295 | 0.434 | 0.368 | 0.405 | 0.348 | 0.346 | 0.554 | 0.544 | 0.51 | 0.399 | 0.418 | 0.893 | 0.89 | 0.688 | 0.382 | 0.273
LU99A | 0.589 | 0.236 | 0.343 | 0.171 | 0.128 | 1.14 | 1.08 | 0.898 | 0.206 | 0.201 | 0.307 | 0.342 | 0.271 | 0.159 | 0.15 | 0.241 | 0.273 | 0.225 | 0.152 | 0.108
LXF-289 | 0.685 | 0.551 | 0.491 | 0.142 | 0.0968 | 0.84 | 0.781 | 0.649 | 0.0959 | 0.0616 | 0.789 | 0.752 | 0.447 | 0.0857 | 0.0529 | 0.704 | 0.817 | 0.269 | 0.0639 | 0.0504
NCI-H23 | 0.29 | 0.271 | 0.198 | 0.123 | 0.0957 | 1.14 | 0.847 | 0.648 | 0.132 | 0.117 | 0.451 | 0.339 | 0.228 | 0.148 | 0.117 | 0.187 | 0.239 | 0.166 | 0.128 | 0.0947
NCI-H322M | 0.503 | 0.486 | 0.47 | 0.463 | 0.384 | 1.16 | 1.45 | 1.21 | 0.878 | 0.45 | 0.549 | 0.505 | 0.556 | 0.384 | 0.318 | 0.717 | 0.778 | 0.594 | 0.475 | 0.423
NCI-H441 | 0.537 | 0.423 | 0.156 | 0.133 | 0.113 | 0.565 | 0.463 | 0.273 | 0.154 | 0.176 | 0.652 | 0.352 | 0.163 | 0.13 | 0.131 | 0.349 | 0.34 | 0.242 | 0.175 | 0.146
NCI-H460 | 0.247 | 0.101 | 0.102 | 0.0172 | 0.0148 | 1.08 | 0.805 | 0.487 | 0.0103 | 0.0108 | 0.401 | 0.206 | 0.323 | 0.0526 | 0.183 | 0.468 | 0.357 | 0.0734 | 0.0365 | 0.0215
NCI-H520 | 0.644 | 0.561 | 0.236 | 0.171 | 0.166 | 0.689 | 0.568 | 0.25 | 0.169 | 0.144 | 0.29 | 0.316 | 0.345 | 0.193 | 0.172 | 0.198 | 0.247 | 0.193 | 0.182 | 0.142
NCI-H596 | 0.469 | 0.695 | 0.802 | 0.439 | 0.297 |  | 1.11 | 0.828 | 0.638 | 0.312 | 0.393 | 0.405 | 0.371 | 0.191 | 0.178 | 0.542 | 0.692 | 0.765 | 0.413 | 0.306
NCI-H647 | 0.544 | 0.388 | 0.279 | 0.0866 | 0.079 | 1.2 | 0.814 | 0.324 | 0.0759 | 0.0904 | 0.441 | 0.425 | 0.413 | 0.0779 | 0.057 | 0.474 | 0.331 | 0.103 | 0.0536 | 0.0596
NCI-H650 | 0.954 | 0.722 | 0.6 | 0.204 | 0.489 | 0.89 | 0.78 | 0.512 | 0.163 | 0.214 | 0.959 | 0.781 | 0.642 | 0.224 | 0.396 | 0.367 | 0.41 | 0.26 | 0.15 | 0.272
NCI-H661 | 0.692 | 0.491 | 0.299 | 0.244 | 0.219 | 0.818 | 0.819 | 0.485 | 0.217 | 0.257 | 0.486 | 0.328 | 0.458 | 0.259 | 0.257 | 0.68 | 0.681 | 0.349 | 0.332 | 0.274
